Measurements published in ChEMBL document CHEMBL4888484, “Replenishing the malaria drug discovery pipeline: Screening and hit evaluation of the MMV Hit Generation Library 1 (HGL1) against asexual blood stage Plasmodium falciparum ,using a nano luciferase reporter read-out” (2022).

How the values were obtained:
[1] = test system: Plasmodium falciparum; assay: Hit confirmation in dose-response curve in NF54 nanoGlo assay, at 72h; format: functional, organism-based, Erythrocyte; design: timepoint 72 hour; settings: Plasmodium falciparum, NF54, Erythrocyte, 72 h
[2] = test system: Plasmodium falciparum; assay: Hit confirmation in dose-response curve in NF54 pLDH assay, at 72h; format: functional, organism-based; design: timepoint 72 hour; settings: NF54, Erythrocyte
[3] = test system: Plasmodium falciparum; assay: Hit confirmation in dose-response curve in Dd2 pLDH assay, at 72h; format: functional, organism-based; design: timepoint 72 hour; settings: Dd2, Erythrocyte
[4] = test system: Plasmodium falciparum; assay: Hit confirmation in dose-response curve in NF54 nanoGlo assay, at 12h; format: functional, organism-based, Erythrocyte; design: timepoint 12 hour; settings: Plasmodium falciparum, NF54, Erythrocyte, 12 h
[5] = Hit confirmation in dose-response curve in HepG2 cytotoxicity assay, at 72h; format: toxicity, cell-based; design: timepoint 72 hour; settings: human, HepG2 cells

| IC50 [1] | IC50 [2] | IC50 [3] | IC50 [4] | Structure (SMILES) | IC50 at 72 h [5] |
| --- | --- | --- | --- | --- | --- |
| 2.82 µM | 1.26 µM | 3.39 µM | > 10 µM | CC[C@H]1CN2C=NC(N3CCN(C(=O)Nc4cc(F)cc(F)c4)CC3)=CC2=N1 | > 10 µM |
| 0.0479 µM | 0.0832 µM | > 10 µM | > 10 µM | COc1nc(NC2CCS(=O)(=O)CC2)ncc1F | > 10 µM |
| 4.37 µM | > 10 µM | 8.13 µM | 8.51 µM | Oc1ccccc1CNc1cccc2cccnc12 | > 10 µM |
| 2.69 µM | 7.59 µM | 3.47 µM | > 10 µM | CC(Oc1ccc2c(c1)C(c1ccccc1)N(Cc1ccccc1F)CC2)C(=O)NC1CC1 (stereo not given) | > 10 µM |
| 1.86 µM | 2.34 µM | 1.66 µM | > 10 µM | Cc1nn(C(C)(C)C)c2nc(C3CC3)cc(C(=O)N(C)c3ccccc3)c12 | > 10 µM |
| 3.63 µM | 10 µM | 4.9 µM | > 10 µM | COc1cccc(CC(=O)N2CCc3nc(N4CCC(C)CC4)nc(Oc4ccccc4OC)c3C2)c1 | > 10 µM |
| 1.62 µM | 9.33 µM | 8.91 µM | > 10 µM | CC(C)c1cc(=O)[nH]c(-n2nc(C3CC3)cc2NC(=O)COc2ccc3ccccc3c2)n1 | > 10 µM |
| 3.02 µM | 3.24 µM | 2.88 µM | > 10 µM | Cc1ccc[n+](Cc2ccc3ccccc3n2)c1 | > 10 µM |
| 2.14 µM | 5.13 µM | 3.02 µM | > 10 µM | COc1ccc(C(=O)CN2C=CCC=C2c2nc(-c3ccc(Cl)cc3)cs2)cc1 | > 10 µM |
| 1.58 µM | > 10 µM | > 10 µM | 0.525 µM | Cc1nc2cc(NC(=O)[C@@]3(C)CCCN(C(=O)c4ccccc4)C3)ccc2o1 | > 10 µM |
| 3.09 µM | 1.12 µM | 2.95 µM | > 10 µM | CCc1cccc(NC(=O)N2CCN(C3=CC4=NC[C@H](C)N4C=N3)CC2)c1 | > 10 µM |
| 6.03 µM | 11 µM | 10.2 µM | > 10 µM | CCn1cc(-c2nc(-c3ccccc3C)no2)c(=O)c2cc(F)c(N3CCCCC3)cc21 | > 10 µM |
| 5.5 µM | 14.1 µM | > 10 µM | > 10 µM | Cc1ccc(NC(=O)Nc2cc(C)ccc2N2CCCN(Cc3ccc(F)cc3)C2=O)cc1 | > 10 µM |
| 2 µM | 1.38 µM | 2.29 µM | 6.76 µM | COC1CCCC1NC(=O)Nc1ncc(Br)cc1C (stereo not given) | > 10 µM |
| 1.74 µM | 3.47 µM | 2.63 µM | 2.14 µM | Cc1ccc(C2=C[C@@H](c3ccc(Cl)cc3)n3nc(NC(=O)c4ccccc4)nc3N2)cc1 | > 10 µM |
| 3.8 µM | > 10 µM | 8.32 µM | 4.27 µM | CC(C)N1CCC2(CC1)N=C(c1ccc3c(c1)OCO3)C[C@@H](c1cc(Cl)ccc1O)N2 | > 10 µM |
| 1.58 µM | 2 µM | 2.04 µM | 3.55 µM | N[C@H]1C[C@H](c2cc(NCCCc3cccnc3)nc(C3CC3)n2)C1 | > 10 µM |
| 1.66 µM | 4.27 µM | 3.09 µM | > 10 µM | Cc1ccc(C(=O)N(Cc2cccc(F)c2)c2ccc(CC(=O)N[C@@H](C)c3ccccc3)cc2)cc1 | > 10 µM |
| 1.95 µM | 5.62 µM | 3.09 µM | 5.13 µM | Oc1ccc(-c2nnc(-c3ccc(O)cc3)nn2)cc1 | > 10 µM |
| 1.62 µM | 9.12 µM | 7.94 µM | 1.95 µM | CC(NCC(O)Cn1c(-c2ccccc2)c(-c2ccccc2)c2ccc3ccccc3c21)c1ccccc1 (stereo not given) | > 10 µM |
| 2.75 µM | 9.55 µM | 7.41 µM | > 10 µM | CC(=O)Nc1c(-c2ccc(C)cc2)c(C)nn1-c1ccc(C(=O)Nc2cc(C)ccn2)cc1 | > 10 µM |
| 2.29 µM | 4.9 µM | 3.89 µM | 3.24 µM | COc1ccc(C(=O)N(C(=O)c2ccc(OC)cc2)c2c3c(nc4ccccc24)CCCC3)cc1 | > 10 µM |
| 1 µM | 1.35 µM | 1.23 µM | 1.7 µM | CCN1C(=O)c2ccccc2N2C(=O)CC[C@@]12C(=O)Nc1cccc(OC)c1 | > 10 µM |
| 0.324 µM | 0.776 µM | 0.631 µM | 0.457 µM | CCNc1nc(C)cc(Nc2ccc(NC(=O)c3cc(C)ccc3C)cc2)n1 | > 10 µM |

| IC50 [1] | IC50 [2] | IC50 [3] | IC50 [4] | Structure (SMILES) | IC50 at 72 h [5] |
| --- | --- | --- | --- | --- | --- |
| 1.95 µM | 3.39 µM | 1.86 µM | > 10 µM | Cc1cc(N2CCC3(CCCN3Cc3cc(C#N)n(C)c3C)CC2)c2ccccc2n1 | > 10 µM |
| 2.82 µM | 11.5 µM | 9.77 µM | 6.92 µM | Cc1nsc2ncc(C(=O)N3CCC(C)CC3)c(N3CCC(C(=O)Nc4cc(F)ccc4F)CC3)c12 | > 10 µM |
| 2.57 µM | 3.8 µM | 2.24 µM | > 10 µM | C[N+]1(CCCC(=O)c2ccc3c(c2)OCCO3)CCC(c2ccccc2)C1 (stereo not given) | > 10 µM |
| 2.88 µM | 7.08 µM | 3.24 µM | > 10 µM | CCCOc1ccc(Nc2cc(C)nc3ccc(Cl)cc23)cc1 | > 10 µM |
| 3.02 µM | > 10 µM | > 10 µM | 0.776 µM | COc1ccc(CNc2nc(-c3nnc(-c4ccccc4)o3)nc3ccccc23)cc1 | > 10 µM |
| 1.66 µM | 1.91 µM | 1.38 µM | 4.68 µM | CN1CCC(N2CCN(Cc3ccc4cc(O)ccc4c3)CC2)CC1 | > 10 µM |
| 3.8 µM | 8.13 µM | 2.88 µM | > 10 µM | Cc1noc(NCc2ccc(Cl)cc2)n1 | > 10 µM |
| 0.537 µM | 0.759 µM | 0.646 µM | 9.55 µM | COc1ccc(C(=O)C[n+]2nc(CNc3ccc(Br)cc3)n3c2CCCCC3)cc1 | > 10 µM |
| 5.37 µM | > 10 µM | > 10 µM | 5.5 µM | COc1c(C)cc(C(=O)[C@H]2CCCN(c3cc(N)ncn3)C2)cc1C | > 10 µM |
| 2.34 µM | 10 µM | > 10 µM | 3.24 µM | Cc1ccc(S(=O)(=O)Nc2cc3nc4ccccc4nc3n2CCc2ccccc2)cc1 | > 10 µM |
| 1.45 µM | > 10 µM | > 10 µM | 0.457 µM | COc1ccc(CCNC(=O)c2cc3c(=O)[nH]c(C)cn3n2)cc1OC | > 10 µM |
| 2 µM | 3.8 µM | 1.78 µM | 8.51 µM | O[C@H]1CNCC[C@@H]1Nc1cc(-c2ccccc2)nc2ccccc12 | > 10 µM |
| 1.95 µM | 3.02 µM | 2.75 µM | > 10 µM | O=S(=O)(c1cccc(Cl)c1)N1CCc2nc(N3CCCCC3)nc(Oc3ccccc3)c2C1 | > 10 µM |
| 1.02 µM | 5.5 µM | 3.55 µM | 1 µM | Cc1nn(-c2ccccn2)c(O)c1C(c1ccccc1)c1c(C)nn(-c2ccccn2)c1O | > 10 µM |
| 1.35 µM | 3.55 µM | 3.24 µM | 1.62 µM | Cc1ccc(CN2CCN(C[C@@H](O)Cn3c4ccccc4n4c(=O)cc(C)c(C#N)c34)CC2)c(C)c1 | > 10 µM |
| 0.589 µM | 0.182 µM | 0.417 µM | > 10 µM | CC[n+]1ccc(-c2ncc(-c3ccc(C(C)(C)C)cc3)o2)cc1 | > 10 µM |
| 0.288 µM | 2.88 µM | 1.82 µM | 0.912 µM | CCC(C(=O)Nc1ccc2c(c1)CN(CCc1ccc(OC)c(OC)c1)C(=O)C(C)O2)c1ccccc1 (stereo not given) | > 10 µM |
| 2.45 µM | 7.76 µM | 5.75 µM | 5.01 µM | NC1CC(NCCc2cccc3cccnc23)c2ccccc21 (stereo not given) | > 10 µM |
| 1.74 µM | 7.76 µM | 5.37 µM | 3.89 µM | COc1ccc(-c2nn3c(N4CCN(CC=Cc5ccccc5)CC4)cc(C)nc3c2C)cc1OC | > 10 µM |
| 2.14 µM | 3.63 µM | 2.82 µM | 3.63 µM | CNC(=O)[C@@H]1C[C@H](NCc2cc(OC)c(OC)c(OC)c2)CN1CC(c1ccccc1)c1ccccc1 | > 10 µM |
| 1.29 µM | > 10 µM | > 10 µM | 0.417 µM | CCc1nc2cc(N3CCC(C(=O)Nc4ccc5c(c4)OCO5)CC3)cnc2nc1CC | > 10 µM |
| 1.78 µM | 2.63 µM | 1.07 µM | 10.2 µM | CNc1nc(NCc2ccccc2)nc2ccccc12 | > 10 µM |
| 3.63 µM | 2.69 µM | 4.07 µM | > 10 µM | Cc1c(F)cccc1NC(=O)N1CCN(C2=CC3=N[C@@H](C)CN3C=N2)CC1 | > 10 µM |

| Structure (SMILES) | IC50 [1] | IC50 [2] | IC50 [3] | IC50 [4] | IC50 at 72 h [5] |
| --- | --- | --- | --- | --- | --- |
| Cc1cc(C(=O)NC2CC(C)n3ccnc32)nn1C(C)C (stereo not given) | 2.45 µM | 0.1 µM | > 10 µM | > 10 µM | > 10 µM |
| O=C(c1ccccc1)c1cc(Cl)ccc1NC(=O)[C@H]1CC(=O)N(c2ccc(F)cc2)C1 | 2.24 µM | 3.39 µM | 4.17 µM | 4.37 µM | > 10 µM |
